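Following 48 hours of exposure in 96-well plates, responses at five concentrations were used to interpolate endpoints linearly. TGI: total growth inhibition.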
How the values were obtained:
Experiment in all cases: NCI-60 cell line screen, 48 h
A498 renal = tested on: A498 renal
ACHN renal = tested on: ACHN renal
CCRF-CEM leukemia = tested on: CCRF-CEM leukemia
COLO 205 colon = tested on: COLO 205 colon
HCC-2998 colon = tested on: HCC-2998 colon
HCT-116 colon = tested on: HCT-116 colon
HOP-92 NSCLC = tested on: HOP-92 NSCLC
HT29 colon = tested on: HT29 colon
LOX IMVI melanoma = tested on: LOX IMVI melanoma
MCF7 breast = tested on: MCF7 breast
MDA-MB-231 breast = tested on: MDA-MB-231 breast
MDA-MB-435 = tested on: MDA-MB-435
NCI-H522 lung = tested on: NCI-H522 lung
NCI/ADR-RES ovarian = tested on: NCI/ADR-RES ovarian
SK-MEL-5 melanoma = tested on: SK-MEL-5 melanoma
SK-OV-3 ovarian = tested on: SK-OV-3 ovarian
T-47D breast = tested on: T-47D breast
UACC-257 melanoma = tested on: UACC-257 melanoma
HL-60(TB) leukemia = tested on: HL-60(TB) leukemia
RPMI-8226 leukemia = tested on: RPMI-8226 leukemia

Compound | TGI (A498 renal) | TGI (ACHN renal) | TGI (CCRF-CEM leukemia) | TGI (COLO 205 colon) | TGI (HCC-2998 colon) | TGI (HCT-116 colon) | TGI (HOP-92 NSCLC) | TGI (HT29 colon) | TGI (LOX IMVI melanoma) | TGI (MCF7 breast) | TGI (MDA-MB-231 breast) | TGI (MDA-MB-435) | TGI (NCI-H522 lung) | TGI (NCI/ADR-RES ovarian) | TGI (SK-MEL-5 melanoma) | TGI (SK-OV-3 ovarian) | TGI (T-47D breast) | TGI (UACC-257 melanoma) | TGI (HL-60(TB) leukemia) | TGI (RPMI-8226 leukemia)
CC(C)(C)O/C=C1/C(=O)OC2C[C@@H](O[Si](C)(C)C(C)(C)C)CC12 (some centres undefined) | > 100 µM | > 100 µM | 88.4 µM | > 100 µM | > 100 µM | > 100 µM | > 100 µM | > 100 µM | > 100 µM | > 100 µM | > 100 µM | > 100 µM | 87.4 µM | > 100 µM | > 100 µM | > 100 µM | > 100 µM | > 100 µM |  | 
CN1C2CCC1CC(CCOC(c1ccc(F)cc1)c1ccc(F)cc1)C2 (centres undefined) | 36.1 µM | 30.8 µM | 46.1 µM | 24.1 µM |  | 27.4 µM | 34.3 µM | 19.1 µM | 30.3 µM |  | 29.7 µM | 25.7 µM | 31.9 µM | 36.5 µM | 21.3 µM | 31.2 µM | 39.2 µM | 34.1 µM | 34.9 µM | 44.4 µM
CNc1c2cccc(C)c2nc2c(C(=O)NCCN(C)C)cccc12 | 0.935 µM | 0.723 µM |  | 0.278 µM | 0.192 µM | 0.453 µM | 0.522 µM | 0.138 µM | 0.391 µM | 0.96 µM | 0.274 µM | 0.34 µM | 0.109 µM | 1.83 µM | 0.593 µM | 1.94 µM | 0.675 µM | 1.24 µM |  | 0.57 µM
OC(CCN1CCCCC1)(c1ccccc1)c1ccccc1 | > 100 µM | > 100 µM | > 100 µM | > 100 µM |  | > 100 µM | > 100 µM | > 100 µM | > 100 µM | > 100 µM | > 100 µM | > 100 µM | > 100 µM | > 100 µM | > 100 µM | > 100 µM | > 100 µM |  |  | > 100 µM
O=C(Nc1cccc2ccccc12)Nn1cnnc1 | > 100 µM | > 100 µM | > 100 µM | > 100 µM | > 100 µM | > 100 µM | > 100 µM | > 100 µM | > 100 µM | > 100 µM |  | > 100 µM | > 100 µM |  | > 100 µM | > 100 µM | > 100 µM | > 100 µM | > 100 µM | > 100 µM
Cc1csc2nc3c(cnn3C)c(=S)n12 |  | > 100 µM | > 100 µM | > 10 µM | > 100 µM | > 100 µM |  | > 100 µM | > 100 µM | > 100 µM | > 10 µM | > 100 µM | 41.9 µM | > 100 µM | > 100 µM | > 100 µM | > 10 µM | > 100 µM |  | > 100 µM
CC(=O)O[C@@H]1CC[C@@]2(C)C(CC[C@H]3[C@@H]4CC[C@H]([C@H](C)CCc5nc6ccc(C)cc6[nH]5)[C@@]4(C)CC[C@@H]32)C1 (some centres undefined) | > 100 µM | > 100 µM | 8.47 µM | > 100 µM | > 100 µM | > 100 µM | > 100 µM | 70.7 µM | > 100 µM | > 100 µM | 55.3 µM | > 100 µM | > 100 µM | > 100 µM | > 100 µM | > 100 µM | 4.63 µM | > 100 µM |  | 84.3 µM
Cc1oc2c(c1C)S(=O)(=O)C(C#N)=C(c1ccccc1)N2 | > 100 µM | > 100 µM |  | > 100 µM | > 100 µM |  | > 100 µM | > 100 µM | > 100 µM | > 100 µM | > 100 µM | > 100 µM | > 100 µM | > 100 µM | > 100 µM | > 100 µM | > 100 µM | > 100 µM |  | > 100 µM
ClC1(Cl)C(c2ccccc2)C1c1ccccc1 (centres undefined) | > 100 µM | 89.7 µM |  | > 100 µM | 30 µM | > 100 µM |  |  | 93 µM | > 100 µM | > 100 µM | 68.6 µM |  | 30.8 µM |  | 55.7 µM | > 100 µM | > 100 µM |  | 79.8 µM
CN(C)c1ccc(/C=N\NC(=O)c2ccccc2Nc2ccccc2C(=O)N/N=C/c2ccc(N(C)C)cc2)cc1 | > 100 µM | > 100 µM | > 100 µM | > 100 µM | > 100 µM | > 100 µM | > 100 µM | > 100 µM | > 100 µM | > 100 µM | 67.8 µM | > 100 µM |  | > 100 µM | > 100 µM | > 100 µM | > 100 µM | > 100 µM |  | > 100 µM

Source: PubChem BioAssay (NCI)
